Assay [1] has as its target T1, isolated recombinant JAK1 kinase domain (Homo sapiens, UniProt P23458).
T1 construct: The activity of the isolated recombinant JAK1 and JAK2 kinase domain was measured
The experiment in a line: JAK1 enzyme assay (Caliper LabChip, Ki). The assay is classed as biochemical. Conditions: recombinant JAK1 kinase domain, 25 μM ATP. A digest of the protocol: (§1)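 Phosphorylation of a fluorescent JAK3-derived dodecapeptide by recombinant human JAK1 or JAK2 catalytic domain is monitored through electrophoretic product/substrate separation. Incubation lasts 30 minutes at 22° C; EDTA quench. Morrison-model Ki values account for ATP competition.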

The target in assay [2] is T2, isolated recombinant JAK2 kinase domain (Homo sapiens, UniProt O60674).
T2 construct: The activity of the isolated recombinant JAK1 and JAK2 kinase domain was measured
The experiment in a line: JAK2 enzyme assay (Caliper LabChip, Ki). Conditions: 25 μM ATP. In kind it is biochemical. In short, it runs like this:
as §1

For assay [3], the system named is JAK1-dependent STAT6 phosphorylation downstream of IL-13 stimulation in BEAS-2B human bronchial epithelial cells. The experiment in a line: JAK1 pathway assay in BEAS-2B cells (IL-13 stimulated STAT6 phosphorylation, MSD). In kind it is cell-based. As to conditions: read-out: P-STAT6 BEAS2B + IL13 IC50. In short, it runs like this: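 BEAS-2B human bronchial epithelial cells, plated the day before in complete growth medium, were preincubated with compound for 1 hr at 37° C (0.2% DMSO final), then stimulated with IL-13 at its EC90 for 15 min. STAT6 phosphorylation in lysates was read by MSD; EC50 was taken as 50% inhibition versus DMSO control.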

The structures appear in SMILES notation.

T1 sequence (P23458 875-1153 limits assumed): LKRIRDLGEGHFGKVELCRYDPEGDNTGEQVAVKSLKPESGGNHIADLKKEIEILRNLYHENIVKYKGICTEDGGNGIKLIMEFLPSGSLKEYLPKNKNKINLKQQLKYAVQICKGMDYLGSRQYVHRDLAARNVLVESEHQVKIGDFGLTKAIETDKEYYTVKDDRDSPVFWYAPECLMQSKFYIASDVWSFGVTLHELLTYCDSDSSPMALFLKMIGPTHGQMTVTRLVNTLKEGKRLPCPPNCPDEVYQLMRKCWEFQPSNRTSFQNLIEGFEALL
T2 sequence (O60674 849-1124 limits assumed): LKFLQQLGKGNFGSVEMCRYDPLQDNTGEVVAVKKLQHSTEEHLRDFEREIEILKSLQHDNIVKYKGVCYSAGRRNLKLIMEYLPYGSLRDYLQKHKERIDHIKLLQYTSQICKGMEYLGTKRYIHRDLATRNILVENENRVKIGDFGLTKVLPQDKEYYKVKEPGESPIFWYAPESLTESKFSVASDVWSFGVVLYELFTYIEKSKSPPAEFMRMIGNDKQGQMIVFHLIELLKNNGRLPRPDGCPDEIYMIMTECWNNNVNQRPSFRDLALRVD

Consider `CC(C)(C#N)CNC1CCN(C(=O)Cn2cc(NC(=O)c3cnn4cccnc34)c(-c3cc(SC4CC4)ccc3OC(F)F)n2)CC1` [Example 167, N-[1-(2-[4-[(2-cyano-2,2-dimethylethyl)amino]piperidin-1-yl]-2-oxoethyl)-3-[5-(cyclopropylsulfanyl)-2-(difluoromethoxy)phenyl]-1H-pyrazol-4-yl]pyrazolo[1,5-a]pyrimidine-3-carboxamide], for which the Ki was determined as 0.28 nM in assay [1] and 0.67 nM in assay [2]. In addition, in assay [3], the IC50 was found to be 11 nM.

`O=C(Nc1cn(CC(=O)N2CCN(C3CCOCC3)CC2)nc1-c1cc(SC2CC2)ccc1OC(F)F)c1cnn2cccnc12` [Example 168, N-[3-[5-cyclopropylsulfanyl-2-(difluoromethoxy)phenyl]-1-[2-oxo-2-(4-tetrahydropyran-4-ylpiperazin-1-yl)ethyl]pyrazol-4-yl]pyrazolo[1,5-a]pyrimidine-3-carboxamide]: the Ki in assay [1] was 0.29 nM; in assay [2], 0.46 nM. Moreover, the IC50 in assay [3] came out at 14 nM.

As to `CC(F)(F)CNC1CCN(C(=O)Cn2cc(NC(=O)c3cnn4cccnc34)c(-c3cc(SC4CC4)ccc3OC(F)F)n2)CC1` [Example 169, N-[3-[5-cyclopropylsulfanyl-2-(difluoromethoxy)phenyl]-1-[2-[4-(2,2-difluoropropylamino)-1-piperidyl]-2-oxo-ethyl]pyrazol-4-yl]pyrazolo[1,5-a]pyrimidine-3-carboxamide], the Ki was determined as 0.43 nM in assay [1] and 0.8 nM in assay [2]. Also, in assay [3], the IC50 is 20 nM.

`CN(C)C(=O)CN1CCN(CC2CCN(C(=O)Cn3cc(NC(=O)c4cnn5cccnc45)c(-c4cc(SC5CC5)ccc4OC(F)F)n3)CC2)CC1` [Example 170, N-[3-[5-cyclopropylsulfanyl-2-(difluoromethoxy)phenyl]-1-[2-[4-[[4-[2-(dimethylamino)-2-oxo-ethyl]piperazin-1-yl]methyl]-1-piperidyl]-2-oxo-ethyl]pyrazol-4-yl]pyrazolo[1,5-a]pyrimidine-3-carboxamide]: the Ki in assay [1] was found to be 0.39 nM; in assay [2] it was 0.78 nM. In addition, the IC50 in assay [3] amounted to 25 nM.

For `CN(C1CCN(C(=O)Cn2cc(NC(=O)c3cnn4cccnc34)c(-c3cc(SC4CC4)ccc3OC(F)F)n2)CC1)C1COC1` [Example 171, N-[3-[5-cyclopropylsulfanyl-2-(difluoromethoxy)phenyl]-1-[2-[4-[methyl(oxetan-3-yl)amino]-1-piperidyl]-2-oxo-ethyl]pyrazol-4-yl]pyraxolo[1,5-a]pyrimidine-3-carboxamide], the Ki in assay [1] turned out to be 0.43 nM; in assay [2], 0.78 nM. The IC50 in assay [3] came to 22 nM.

As to `CC(=O)N1CCN(CC2CCN(C(=O)Cn3cc(NC(=O)c4cnn5cccnc45)c(-c4cc(SC5CC5)ccc4OC(F)F)n3)CC2)CC1` [Example 172, N-[1-[2-[4-[(4-acetylpiperazin-1-yl)methyl]-1-piperidyl]-2-oxo-ethyl]-3-[5-cyclopropylsulfanyl-2-(difluoromethoxy)phenyl]pyrazol-4-yl]pyrazolo[1,5-a]pyrimidine-3-carboxamide], the figures for the Ki in assay [1] and in assay [2] were 0.45 nM and 0.91 nM, respectively. Moreover, in assay [3], the IC50 was determined as 32 nM.

On to `COC(=O)N1CCN(CC2CCN(C(=O)Cn3cc(NC(=O)c4cnn5cccnc45)c(-c4cc(SC5CC5)ccc4OC(F)F)n3)CC2)CC1` [Example 173, methyl 4-[[1-[2-[3-[5-cyclopropylsulfanyl-2-(difluoromethoxy)phenyl]-4-(pyrazolo[1,5-a]pyrimidine-3-carbonylamino)pyrazol-1-yl]acetyl]-4-piperidyl]methyl]piperazine-1-carboxylate], for which the Ki in assay [1] amounted to 0.33 nM; in assay [2], 0.83 nM. In addition, the IC50 in assay [3] is 17 nM.

In the case of `O=C(Nc1cn(Cc2cn(C3CCN(C4COC4)CC3)nn2)nc1-c1cc(SC2CC2)ccc1OC(F)F)c1cnn2cccnc12` [Example 174, N-[3-[5-cyclopropylsulfanyl-2-(difluoromethoxy)phenyl]-1-[[1-[1-(oxetan-3-yl)-4-piperidyl]triazol-4-yl]methyl]pyrazol-4-yl]pyrazolo[1,5-a]pyrimidine-3-carboxamide], the Ki in assay [1] was found to be 0.27 nM; in assay [2], 0.21 nM. Besides, in assay [3], the IC50 stood at 11 nM.

Turning to `O=C(Nc1c[nH]nc1-c1cc(SC2COC2)ccc1OC(F)F)c1cnn2cccnc12` [Example 175, N-[3-[2-(difluoromethoxy)-5-(oxetan-3-ylsulfanyl)phenyl]-1H-pyrazol-4-yl]pyrazolo[1,5-a]pyrimidine-3-carboxamide], the Ki was determined as 0.23 nM in assay [1] and 0.11 nM in assay [2]. In assay [3], the IC50 was determined as 9.5 nM.

Take `CN1CCC[C@@H]1Cn1cc(NC(=O)c2cnn3cccnc23)c(-c2cc(SC3COC3)ccc2OC(F)F)n1` [Example 176, N-[3-[2-(difluoromethoxy)-5-(oxetan-3-ylsulfanyl)phenyl]-1-[[(2R)-1-methylpyrrolidin-2-yl]methyl]pyrazol-4-yl]pyrazolo[1,5-a]pyrimidine-3-carboxamide]: the Ki came to 0.38 nM in assay [1] and 1.4 nM in assay [2]. In assay [3], the IC50 amounted to 28 nM.

`O=C(Nc1cn(CCN[C@@H]2CCOC2)nc1-c1cc(SC2COC2)ccc1OC(F)F)c1cnn2cccnc12` [Example 177, N-[3-[2-(difluoromethoxy)-5-(oxetan-3-ylsulfanyl)phenyl]-1-[2-[[(3R)-tetrahydrofuran-3-yl]amino]ethyl]pyrazol-4-yl]pyrazolo[1,5-a]pyrimidine-3-carboxamide]: the Ki in assay [1] was 0.81 nM; in assay [2] it was 0.48 nM. Besides, the IC50 in assay [3] amounted to 18 nM.

For the compound `CNCCn1cc(NC(=O)c2cnn3cccnc23)c(-c2cc(SC3COC3)ccc2OC(F)F)n1` [Example 178, N-[3-[2-(difluoromethoxy)-5-(oxetan-3-ylsulfanyl)phenyl]-1-[2-(methylamino)ethyl]pyrazol-4-yl]pyrazolo[1,5-a]pyrimidine-3-carboxamide], the Ki in assay [1] was determined as 0.36 nM; in assay [2], 0.64 nM. Besides, in assay [3], the IC50 stood at 9 nM.

As for `O=C(Nc1cn(CCN[C@H]2C[C@H](O)C2)nc1-c1cc(SC2COC2)ccc1OC(F)F)c1cnn2cccnc12` [Example 179, N-[3-[2-(difluoromethoxy)-5-(oxetan-3-ylsulfanyl)phenyl]-1-(2-[[trans-3-hydroxycyclobutyl]amino]ethyl)-1H-pyrazol-4-yl]pyrazolo[1,5-a]pyrimidine-3-carboxamide], the Ki in assay [1] stood at 0.74 nM; in assay [2], 0.59 nM. The IC50 in assay [3] was 26 nM.

On to `O=C(Nc1cn(CCN[C@@H]2CCCOC2)nc1-c1cc(SC2COC2)ccc1OC(F)F)c1cnn2cccnc12` [Example 180, N-[3-[2-(difluoromethoxy)-5-(oxetan-3-ylsulfanyl)phenyl]-1-[2-[[(3R)-tetrahydropyran-3-yl]amino]ethyl]pyrazol-4-yl]pyrazolo[1,5-a]pyrimidine-3-carboxamide], for which the values for the Ki in assay [1] and in assay [2] were 1 nM and 0.76 nM, respectively. In addition, the IC50 in assay [3] is 14 nM.

Consider `CCN1CCN(C(=O)Cn2cc(NC(=O)c3cnn4cccnc34)c(-c3cc(SC4COC4)ccc3OC(F)F)n2)CC1` [Example 181, N-[3-[2-(difluoromethoxy)-5-(oxetan-3-ylsulfanyl)phenyl]-1-[2-(4-ethylpiperazin-1-yl)-2-oxo-ethyl]pyrazol-4-yl]pyrazolo[1,5-a]pyrimidine-3-carboxamide], for which the Ki in assay [1] was 0.8 nM; in assay [2], 1.8 nM. Also, the IC50 in assay [3] worked out at 83 nM.

Take `O=C(Nc1cn(CC(=O)N2CCC(N3CCOCC3)CC2)nc1-c1cc(SC2COC2)ccc1OC(F)F)c1cnn2cccnc12` [Example 182, N-[3-[2-(difluoromethoxy)-5-(oxetan-3-ylsulfanyl)phenyl]-1-[2-(4-morpholino-1-piperidyl)-2-oxo-ethyl]pyrazol-4-yl]pyrazolo[1,5-a]pyrimidine-3-carboxamide]: the Ki in assay [1] worked out at 0.92 nM; in assay [2], 1.9 nM. In addition, the IC50 in assay [3] was 91 nM.

Regarding `O=C(Nc1cn(CC(=O)N2CCC(CN3CCOCC3)CC2)nc1-c1cc(SC2COC2)ccc1OC(F)F)c1cnn2cccnc12` [Example 183, N-[3-[2-(difluoromethoxy)-5-(oxetan-3-ylsulfanyl)phenyl]-1-[2-[4-(morpholinomethyl)-1-piperidyl]-2-oxo-ethyl]pyrazol-4-yl]pyrazolo[1,5-a]pyrimidine-3-carboxamide], the figures for the Ki in assay [1] and in assay [2] were 0.65 nM and 1.5 nM, respectively. In addition, the IC50 in assay [3] worked out at 33 nM.

Turning to `O=C(Nc1cn(CC(=O)N2CCN(C3CCOCC3)CC2)nc1-c1cc(SC2COC2)ccc1OC(F)F)c1cnn2cccnc12` [Example 184, N-[3-[2-(difluoromethoxy)-5-(oxetan-3-ylsulfanyl)phenyl]-1-[2-oxo-2-(4-tetrahydropyran-4-ylpiperazin-1-yl)ethyl]pyrazol-4-yl]pyrazolo[1,5-a]pyrimidine-3-carboxamide], the values for the Ki in assay [1] and in assay [2] were 0.56 nM and 1.1 nM, respectively. Besides, the IC50 in assay [3] is 74 nM.

As for `CC(F)(F)CNC1CCN(C(=O)Cn2cc(NC(=O)c3cnn4cccnc34)c(-c3cc(SC4COC4)ccc3OC(F)F)n2)CC1` [Example 185, N-[3-[2-(difluoromethoxy)-5-(oxetan-3-ylsulfanyl)phenyl]-1-[2-[4-(2,2-difluoropropylamino)-1-piperidyl]-2-oxo-ethyl]pyrazol-4-yl]pyrazolo[1,5-a]pyrimidine-3-carboxamide], the figures for the Ki in assay [1] and in assay [2] were 0.71 nM and 1.7 nM, respectively. The IC50 in assay [3] was 47 nM.

The record behind these values is patent publication US20180265515A1 (Genentech, Inc., priority 2015, published 2018).
